What was measured:
HCC1806 = experiment: Antiproliferative activity against human HCC1806 cells assessed as reduction in cell viability incubated for 72 hrs by MTT assay; format: functional, cell-based; conditions: HCC1806, 72 h
[1] = Activation of MTH1 (unknown origin); design: species or system Homo sapiens
[2] = Activation of rat liver AMPK
[3] = Upregulation of BRCA1 expression in mouse Bone marrow cells at 5 uM; format: functional, Bone marrow cell
[4] = Upregulation of BRCA2 expression in mouse Bone marrow cells at 5 uM; format: functional, Bone marrow cell
[5] = Activation of Flag/His-tagged human recombinant OGG1 (1 to 345 residues) by fluorescence based analysis
[6] = Upregulation of OGG1 level in human A549 cells at 30 uM measured for 48 hrs relative to control; format: functional
[7] = target: T1, NAD-dependent protein deacetylase sirtuin-1 (Homo sapiens) (UniProt Q96EB6); experiment: Activation of N-terminal Hex/Histidine-tagged human SIRT1 extracted from Escherichia coli BL21 (DE3) by Fluorescence polarization assay; conditions: filed as activator
T1 sequence (whole entry): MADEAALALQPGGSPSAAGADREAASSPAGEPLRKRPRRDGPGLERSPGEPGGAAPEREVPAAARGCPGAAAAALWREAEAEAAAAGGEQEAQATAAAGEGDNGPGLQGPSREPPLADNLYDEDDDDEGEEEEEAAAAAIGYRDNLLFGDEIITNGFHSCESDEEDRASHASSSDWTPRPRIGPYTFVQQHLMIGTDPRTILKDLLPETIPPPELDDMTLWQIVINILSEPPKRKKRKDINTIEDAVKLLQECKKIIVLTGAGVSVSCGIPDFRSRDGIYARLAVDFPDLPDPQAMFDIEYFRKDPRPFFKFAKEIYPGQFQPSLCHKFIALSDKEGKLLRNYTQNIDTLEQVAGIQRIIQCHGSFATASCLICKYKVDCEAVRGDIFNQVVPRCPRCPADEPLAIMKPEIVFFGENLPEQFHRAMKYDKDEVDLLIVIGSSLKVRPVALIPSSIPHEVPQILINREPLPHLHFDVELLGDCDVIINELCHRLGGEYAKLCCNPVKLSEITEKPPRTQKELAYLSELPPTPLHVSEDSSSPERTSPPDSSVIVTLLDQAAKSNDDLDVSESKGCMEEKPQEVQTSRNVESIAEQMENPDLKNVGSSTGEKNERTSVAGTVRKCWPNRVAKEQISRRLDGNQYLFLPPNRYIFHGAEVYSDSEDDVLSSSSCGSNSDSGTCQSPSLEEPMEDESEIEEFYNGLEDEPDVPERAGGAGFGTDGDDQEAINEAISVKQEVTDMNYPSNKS

HCC1937 = experiment: Antitumor activity against human HCC1937 cells harboring BRAC1 mutant xenografted in NOD/SCID mouse assessed as increase in survival rate at 250 mg/kg, ip measured after 60 days relative to control; format: functional; conditions: time 60 day
[8] = Induction of DNA repair activity in human SUM149PT cells harboring BRCA1 mutant co-expressing GFP reporter gene at 100 uM relative to control; format: functional
[9] = Induction of DNA repair activity in human SUM149PT cells harboring BRCA1 mutant co-expressing GFP reporter gene at 1 uM relative to control; format: functional
Mus musculus [10] = organism: Mus musculus; experiment: Reversal of oxidative stress-induced DNA damage in mouse model assessed as increase in expression of XRCC1 by measuring fold change
Mus musculus [11] = organism: Mus musculus; experiment: Reversal of oxidative stress-induced DNA damage in mouse model assessed as increase in expression of OGG1 by measuring fold change
Mus musculus [12] = organism: Mus musculus; experiment: Reversal of oxidative stress-induced DNA damage in mouse model assessed as increase in expression of APE1 by measuring fold change
[13] = Upregulation of OGG1 expression in mouse MCT cells assessed as fold increase at 2 mM

`O=C(Nc1ccc(CN2CCOCC2)c(C(F)(F)F)c1)c1ccc(C#Cc2cccc3cnccc23)cn1` gave an IC50 (HCC1806) of 10 µM and an EC50 [1] of 5.5 µM.
`Nc1ncnc2c1ncn2[C@H]1O[C@@H](COP(=O)(O)O)[C@H](O)[C@@H]1O` showed an EC50 [2] of 6 µM.
For `COc1cc(/C=C/C(=O)CC(=O)/C=C/c2ccc(O)c(OC)c2)ccc1O` [CURCUMIN], the Activity [3] was 170% and the Activity [4] was 170%.
Work on `N#Cc1c(O)c2c(-c3ccc(-c4ccccc4O)cc3)csc2[nH]c1=O` yielded an EC50 [2] of 0.116 µM.
`OC(Cn1ccnc1)(c1ccc(Cl)cc1Cl)C1CCCCC1` (stereo not given) showed an EC50 [5] of 5 µM and an Activity [6] of 142.3%.
In the case of `COc1cc(C(=O)Nc2ccccc2-c2cn3c(CN4CCNCC4)csc3n2)cc(OC)c1OC`, the EC1.5 [7] is reported as 2.9 µM.
`CNc1nnc(C)c2c1cc(-c1ccc(F)cc1)n2C` gave an EC50 [5] of 5.1 µM.
In the case of `NC(CO)C(=O)NNCc1ccc(O)c(O)c1O` (stereo not given) [BENSERAZIDE], the Activity (HCC1937) is reported as “<=70%” and the Activity [8] is reported as 60%.
Work on `Cc1nc(-c2cccnc2)sc1C(=O)Nc1ccccc1-c1cn2c(CN3CCOCC3)csc2n1` yielded an EC1.5 [7] of 0.43 µM.
Work on `CC(=O)c1ccc(S(=O)(=O)NC(=O)NC2CCCCC2)cc1` [ACETOHEXAMIDE] yielded an Activity [9] of 90%.
Compound `Cc1cnc(N2CCN3CCCC3C2)nc1Oc1ccc(-n2ccnc2)cc1` (stereo not given) has an EC50 [5] of 4.6 µM.
In the case of `O=c1c(O)c(-c2ccc(O)c(O)c2)oc2cc(O)cc(O)c12` [QUERCETIN], the “fold change (FC)” value (Mus musculus [10]) is reported as 2, the “fold change (FC)” value (Mus musculus [11]) is reported as 2 and the “fold change (FC)” value (Mus musculus [12]) is reported as 2.
For `NC(=O)c1ncn([C@H]2O[C@@H](COP(=O)(O)O)[C@H](O)[C@@H]2O)c1N`, the “fold change (FC)” value [13] was 5.
For `Cc1cc(N[C@@H](C)C(=O)Nc2ccccc2)nc(Nc2ccccc2)n1`, the EC50 [5] was 4.1 µM.

Reference: ChEMBL document CHEMBL6177940, “Therapeutic upregulation of DNA repair pathways: strategies and small molecule activators” (RSC Med Chem, 2024)
